# Tested on: not listed separately
# Assay: Plasma concentration in rat at 5 mg/kg measured at 1 hr
# Type: ADME, organism-based
# Parameters: dose 5 mg/kg
# Details: not given
row,concentration at 1 h [nM],Structure (SMILES)
1,100,C=C[C@@H]1C[C@]1(NC(=O)[C@@H]1C[C@@H](Oc2cc(OCC)nc3c(Br)c(OC)ccc23)CN1C(=O)[C@@H](CC(=O)Nc1ccccc1)C(C)(C)C)C(=O)NS(=O)(=O)C1CC1

# Tested on: Hepatitis C virus
# Assay: Antiviral activity against Hepatitis C virus genotype 1b infected in human Huh-9-13 cells by replicon assay
# Type: functional, organism-based, Hepacivirus hominis
# Details: not given
row,EC50 [nM],Structure (SMILES)
1,11,C=C[C@@H]1C[C@]1(NC(=O)[C@@H]1C[C@@H](Oc2cc(-c3ccccc3)nc3cc(OC)ccc23)CN1C(=O)[C@@H](CC(=O)N1CCCCC1)C(C)(C)C)C(=O)NS(=O)(=O)C1CC1 [SOVAPREVIR]

# Tested on: not listed separately
# Assay: Solubility of the compound at pH 7.2
# Type: physicochemical
# Details: buffer
row,solubility [mg/mL],Structure (SMILES)
1,56,C=C[C@@H]1C[C@]1(NC(=O)[C@@H]1C[C@@H](Oc2cc(OCC)nc3c(Cl)cccc23)CN1C(=O)[C@@H](CC(=O)Nc1ccccc1)C(C)(C)C)C(=O)NS(=O)(=O)C1CC1
2,144,C=C[C@@H]1C[C@]1(NC(=O)[C@@H]1C[C@@H](Oc2cc(OCC)nc3c(Cl)cccc23)CN1C(=O)[C@@H](CC(=O)NC(C)(C)C)C(C)(C)C)C(=O)NS(=O)(=O)C1CC1
3,45,C=C[C@@H]1C[C@]1(NC(=O)[C@@H]1C[C@@H](Oc2cc(OCC)nc3c(Br)c(OC)ccc23)CN1C(=O)[C@@H](CC(=O)Nc1ccccc1)C(C)(C)C)C(=O)NS(=O)(=O)C1CC1

# Tested on: not listed separately
# Assay: Half life in human liver microsomes
# Type: ADME, Microsome
# Details: not given
row,half-life [min],Structure (SMILES)
1,> 300,C=C[C@@H]1C[C@]1(NC(=O)[C@@H]1C[C@@H](Oc2cc(OCC)nc3c(Cl)cccc23)CN1C(=O)[C@@H](CC(=O)Nc1ccccc1)C(C)(C)C)C(=O)NS(=O)(=O)C1CC1
2,95,C=C[C@@H]1C[C@]1(NC(=O)[C@@H]1C[C@@H](Oc2cc(OCC)nc3c(Cl)cccc23)CN1C(=O)[C@@H](CC(=O)NC(C)(C)C)C(C)(C)C)C(=O)NS(=O)(=O)C1CC1
3,91,C=C[C@@H]1C[C@]1(NC(=O)[C@@H]1C[C@@H](Oc2cc(OCC)nc3c(Br)c(OC)ccc23)CN1C(=O)[C@@H](CC(=O)Nc1ccccc1)C(C)(C)C)C(=O)NS(=O)(=O)C1CC1

# Tested on: not listed separately
# Assay: Half life in rat liver microsomes
# Type: ADME, Microsome
# Details: not given
row,half-life [min],Structure (SMILES)
1,160,C=C[C@@H]1C[C@]1(NC(=O)[C@@H]1C[C@@H](Oc2cc(OCC)nc3c(Cl)cccc23)CN1C(=O)[C@@H](CC(=O)Nc1ccccc1)C(C)(C)C)C(=O)NS(=O)(=O)C1CC1
2,> 300,C=C[C@@H]1C[C@]1(NC(=O)[C@@H]1C[C@@H](Oc2cc(OCC)nc3c(Br)c(OC)ccc23)CN1C(=O)[C@@H](CC(=O)Nc1ccccc1)C(C)(C)C)C(=O)NS(=O)(=O)C1CC1

# Tested on: not listed separately
# Assay: Permeability across apical to basolateral side in human Caco2 cells
# Type: ADME, cell-based
# Details: Caco-2, read-out: permeability
row,Papp A→B [×10⁻⁶ cm/s],Structure (SMILES)
1,3.9,C=C[C@@H]1C[C@]1(NC(=O)[C@@H]1C[C@@H](Oc2cc(OCC)nc3c(Cl)cccc23)CN1C(=O)[C@@H](CC(=O)Nc1ccccc1)C(C)(C)C)C(=O)NS(=O)(=O)C1CC1
2,3,C=C[C@@H]1C[C@]1(NC(=O)[C@@H]1C[C@@H](Oc2cc(OCC)nc3c(Cl)cccc23)CN1C(=O)[C@@H](CC(=O)NC(C)(C)C)C(C)(C)C)C(=O)NS(=O)(=O)C1CC1
3,2.4,C=C[C@@H]1C[C@]1(NC(=O)[C@@H]1C[C@@H](Oc2cc(OCC)nc3c(Br)c(OC)ccc23)CN1C(=O)[C@@H](CC(=O)Nc1ccccc1)C(C)(C)C)C(=O)NS(=O)(=O)C1CC1

# Tested on: not listed separately
# Assay: Inhibition of Hepatitis C virus NS3 protease
# Parameters: species or system Hepacivirus hominis
# Details: not given
row,IC50 [nM],Structure (SMILES)
1,0.8,C=C[C@@H]1C[C@]1(NC(=O)[C@@H]1C[C@@H](Oc2cc(OCC)nc3c(Cl)cccc23)CN1C(=O)[C@@H](CC(=O)Nc1ccccc1)C(C)(C)C)C(=O)NS(=O)(=O)C1CC1
2,0.9,C=C[C@@H]1C[C@]1(NC(=O)[C@@H]1C[C@@H](Oc2cc(OCC)nc3c(Cl)cccc23)CN1C(=O)[C@@H](CC(=O)NC(C)(C)C)C(C)(C)C)C(=O)NS(=O)(=O)C1CC1
3,0.4,C=C[C@@H]1C[C@]1(NC(=O)[C@@H]1C[C@@H](Oc2cc(OCC)nc3c(Br)c(OC)ccc23)CN1C(=O)[C@@H](CC(=O)Nc1ccccc1)C(C)(C)C)C(=O)NS(=O)(=O)C1CC1

# Tested on: Hepatitis C virus
# Assay: Antiviral activity against Hepatitis C virus
# Type: functional, organism-based, Hepacivirus hominis
# Details: not given
row,EC50 [nM],Structure (SMILES)
1,6.5,C=C[C@@H]1C[C@]1(NC(=O)[C@@H]1C[C@@H](Oc2cc(OCC)nc3c(Cl)cccc23)CN1C(=O)[C@@H](CC(=O)Nc1ccccc1)C(C)(C)C)C(=O)NS(=O)(=O)C1CC1
2,69,C=C[C@@H]1C[C@]1(NC(=O)[C@@H]1C[C@@H](Oc2cc(OCC)nc3c(Cl)cccc23)CN1C(=O)[C@@H](CC(=O)NC(C)(C)C)C(C)(C)C)C(=O)NS(=O)(=O)C1CC1
3,2.5,C=C[C@@H]1C[C@]1(NC(=O)[C@@H]1C[C@@H](Oc2cc(OCC)nc3c(Br)c(OC)ccc23)CN1C(=O)[C@@H](CC(=O)Nc1ccccc1)C(C)(C)C)C(=O)NS(=O)(=O)C1CC1

# Source: ChEMBL document CHEMBL2401615, “Peptide backbone replacement of hepatitis C virus NS3 serine protease C-terminal cleavage product analogs: discovery of potent succinamide inhibitors” (Bioorg Med Chem Lett, 2013)
